Reference: paper PMC12389534, “Unlocking Therapeutic Potential of Novel Thieno-Oxazepine Hybrids as Multi-Target Inhibitors of AChE/BChE and Evaluation Against Alzheimer’s Disease: In Vivo, In Vitro, Histopathological, and Docking Studies” (Pharmaceuticals, 2025)

Key:
[1] = tested on: NLRP3; experiment: NLRP3 mRNA expression (RT-qPCR); type: in vivo, rat; design: reduction of NLRP3 mRNA expression: concentration or dose not given beside the values; conditions: AlCl3-induced AD rats; for NLRP3: mRNA expression level, mean ± SE, n = 6
Protocol: (§1) The brain tissues of the rats were removed and rigorously washed in isotonic saline 24 h after they were euthanized following the last behavioral test. For histological investigation, four brains per group were preserved for the whole night in 10% neutral buffered formalin. The remaining six brains were split into two sections each. In order to create a 10% homogenate (w/v), the first component was instantaneously homogenized using an ice-cold solution that included 300 mM sucrose and 50 mM Tris-HCl (pH 7.4). The homogenate was centrifuged at 1800× g for 10 min at 4 °C for biochemical tests, and the supernatant was thereafter kept at −20 °C. The second portion was set aside for use in RT-PCR analysis at −80 °C [94].
(§2) See Supplementary Information.

[2] = tested on: Amyloid-β; experiment: Brain amyloid-β level (ELISA); type: in vivo, rat; design: reduction of β-amyloid levels: concentration or dose not given beside the values; conditions: AlCl3-induced AD rats; for Amyloid-β (ng/g Tissue): brain, mean ± SE, n = 6
Protocol: as §1, §2

[3] = tested on: IL-1β; experiment: Brain IL-1β level (ELISA); type: in vivo, rat; design: reduction in IL-1β levels: concentration or dose not given beside the values; conditions: AlCl3-induced AD rats; for IL-β (pg/g Tissue): mean ± SE, n = 6
Protocol: as §1, with “[94]. […]” for “[94].”

[4] = tested on: NFκβ; experiment: NFκβ mRNA expression (RT-qPCR); type: in vivo, rat; design: reduction of NFκβ mRNA expression: concentration or dose not given beside the values; conditions: AlCl3-induced AD rats; for NFκβ: mRNA expression level, mean ± SE, n = 6
Protocol: as §1, §2

[5] = tested on: 5-HT; experiment: Brain 5-HT level (fluorometric); type: in vivo, rat; conditions: AlCl3-induced AD rats; for 5-HT (ng/g Tissue): brain tissue, mean ± SE, n = 6
Protocol: as §1
(§3) Brain monoamine levels were promptly assessed following the rats’ euthanasia to prevent changes in the substance’s concentration. Dopamine (DA), norepinephrine (NE), and serotonin (5-HT) fluorometric tests were conducted on brain tissue homogenate using the Ciarlone method. […] The concentrations were articulated as nanograms per gram of fresh tissue using the fluorescence of reference solutions [95].

[6] = tested on: BACE1; experiment: Brain BACE1 level (ELISA); type: in vivo, rat; design: reduction of BACE1 levels: concentration or dose not given beside the values; conditions: AlCl3-induced AD rats; for BACE1 (ng/mL): mean ± SE, n = 6
Protocol: as §1, with “[94]. […]” for “[94].”

[7] = tested on: Nrf-2; experiment: Nrf-2 mRNA expression (RT-qPCR); type: in vivo, rat; conditions: AlCl3-induced AD rats; for Nrf-2: mRNA expression in brain tissue, mean ± SE, n = 6
Protocol: as §1, §2

[8] = tested on: SOD; experiment: Brain SOD activity (colorimetric); type: in vivo, rat; conditions: brain tissue, AlCl3-induced AD rats; mean ± SE, n = 6
Protocol: as §1
The SOD enzyme activity was estimated using the Marklund et al. method, which is founded on the enzyme’s capacity to decrease the nitro blue tetrazolium dye at a wavelength of 540 nm. To evaluate the TAC, a colorimetric approach was employed to estimate the amount of hydrogen peroxide that remains after 3,5-dichloro-2-hydroxybenzene sulphonate is converted to a colored product at 660 nm.

[9] = tested on: Caspase-1; experiment: Caspase-1 gene expression (RT-qPCR); type: in vivo, rat; design: reduction of Caspase-1 levels: concentration or dose not given beside the values; conditions: AlCl3-induced AD rats; for Caspase-1: gene expression, mean ± SE, n = 6
Protocol: as §1, §2

[10] = tested on: AChE; type: in vivo; design: reduction in AChE levels: concentration or dose not given beside the values; conditions: AlCl3-induced AD rats; for AChE (ng/g Tissue): brain tissue, mean ± SE, n = 6; for reduction in AChE levels: brain
[11] = tested on: DA; experiment: Brain DA level (fluorometric); type: in vivo, rat; conditions: AlCl3-induced AD rats; for DA (ng/g Tissue): brain tissue, mean ± SE, n = 6
Protocol: as §1, §3

[12] = tested on: AlCl3-induced AD rat model; experiment: Y-maze SAP test in AlCl3-induced AD rats; type: in vivo; conditions: for SAP%: mean ± SE, n = 6
Protocol: All procedures were conducted conforming to the applicable National Institutes of Health standards and regulations for the Care and Use of Laboratory Animals. In this experiment, adult male Dawley rats in excellent condition weighing between 300 and 320 g were used. The animals were acquired from the Nile Company for Pharmaceuticals and Chemical Industries (Cairo, Egypt). They were placed in a controlled laboratory setting with unrestricted access to water, a temperature range of 24 to 26 °C, and 12 h a light–dark cycle. Three rats per cage were housed in polycarbonate cages that were individually packed with paper and encased with stainless steel wire.
One kind of short-term memory that SAP can represent is spatial working memory. Three arms, designated A, B, or C, were employed in a black hardwood Y-maze with a symmetrical triangular core space. Rats were briefly positioned at the edge of one arm and given 8 min to freely navigate around the maze. When the rat’s rear paws were fully inside the arm, the entries were counted. The following formula was used to determine SAP based on the total number of arm entries and alternations: SAP (%) = [number of alternations/(total arm entries − 2)] × 100 [94].

[13] = molecular target: T1, BChE (Homo sapiens, UniProt P06276); experiment: biochemical; conditions: for IC50: fluorescence kit, triplicate; for Selectivity Index BChE/AChE: ratio of IC50 BChE to IC50 AChE, <1 = preferential BChE inhibition
T1 construct: purchased Invitrogen EIABCHEF
Protocol: Using an Invitrogen BChE test kit (Catalog #EIABCHEF), the assay was performed in compliance with the supplier’s instructions. The study was conducted using black 96-well plates. […] Each well was then filled with 50 μL of the reaction mixture, which consisted of fluorescence detection reagent and butyrylthiocholine iodide in assay buffer. The plate was then left to incubate for 20 min at room temperature. Finally, excitation at 390 nm was used to observe emission at 510 nm using a microplate reader. Background fluorescence was further eliminated for each data point.

[14] = tested on: Wnt3a; experiment: Brain Wnt3a level; type: in vivo, rat; conditions: AlCl3-induced AD rats; for Wnt3a (ng/g Tissue): mean ± SE, n = 6
Protocol: as §1, §2

[15] = tested on: MDA; experiment: Brain MDA content (thiobarbituric acid method); type: in vivo, rat; design: reduction in MDA brain content: concentration or dose not given beside the values; conditions: AlCl3-induced AD rats; for MDA (nmol/g Tissue): brain tissue, mean ± SE, n = 6
[16] = tested on: NE; experiment: Brain NE level (fluorometric); type: in vivo, rat; conditions: AlCl3-induced AD rats; for NE (nmol/g Tissue): brain tissue, mean ± SE, n = 6
Protocol: as §1, §3

[17] = tested on: BAX; experiment: BAX gene expression (RT-qPCR); type: in vivo, rat; conditions: gene expression; AlCl3-induced AD rats; mean ± SE, n = 6
Protocol: as §1, §2

T1 sequence (P06276 29-602): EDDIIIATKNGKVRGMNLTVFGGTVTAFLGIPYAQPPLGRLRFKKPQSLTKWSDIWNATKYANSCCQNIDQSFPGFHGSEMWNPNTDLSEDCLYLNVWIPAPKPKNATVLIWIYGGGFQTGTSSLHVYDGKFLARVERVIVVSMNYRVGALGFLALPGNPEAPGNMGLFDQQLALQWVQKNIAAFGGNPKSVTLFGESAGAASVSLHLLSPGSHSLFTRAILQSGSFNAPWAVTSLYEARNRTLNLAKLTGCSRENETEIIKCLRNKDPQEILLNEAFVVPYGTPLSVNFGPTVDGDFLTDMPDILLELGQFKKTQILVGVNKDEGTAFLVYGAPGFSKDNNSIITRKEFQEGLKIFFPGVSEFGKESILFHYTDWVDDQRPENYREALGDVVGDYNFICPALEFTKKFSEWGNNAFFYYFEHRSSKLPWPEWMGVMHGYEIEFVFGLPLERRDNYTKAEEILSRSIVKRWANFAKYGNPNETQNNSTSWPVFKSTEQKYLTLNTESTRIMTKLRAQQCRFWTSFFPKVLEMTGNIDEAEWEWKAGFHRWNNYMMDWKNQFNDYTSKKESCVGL

Compound	reduction of NLRP3 mRNA expression [1]	NLRP3 [1]	reduction of β-amyloid levels [2]	Amyloid-β (ng/g Tissue) [2]	reduction in IL-1β levels [3]	IL-β (pg/g Tissue) [3]	reduction of NFκβ mRNA expression [4]	NFκβ [4]	elevation of 5-HT levels [5]	5-HT (ng/g Tissue) [5]	reduction of BACE1 levels [6]	BACE1 (ng/mL) [6]	elevation of Nrf-2 mRNA expression [7]	Nrf-2 [7]	SOD(U/g) [8]	reduction of Caspase-1 levels [9]	Caspase-1 [9]	AChE (ng/g Tissue) [10]	reduction in AChE levels [10]	elevation of DA levels [11]	other results
O=C1CN(c2ccc(Cl)cc2)C(=O)c2c(sc3c2CCCCC3)O1 [Compound 12, 4-(4-Chlorophenyl)-3,4,7,8,9,10-hexahydro-6H-cyclohepta[4,5]thieno[3,2-f][1,4]oxazepine-2,5-dione]	69.9%	3.21 ± 0.12 ^abc	62.3%	10.51 ± 0.1 ^abc ng/g Tissue	53.9%	54.51 ± 1.3 ^abc pg/g Tissue	49.2%	4.30 ± 0.14 ^abc	2.8 fold	5.07 ± 0.18 ^abc ng/g Tissue	53.9%	13.68 ± 0.2 ^abc ng/mL	4 fold	0.64 ± 0.020 ^abc	2.15 ± 0.39 ^abc U/g	52.3%	4.54 ± 0.090 ^abc	35.66 ± 0.19 ^abc ng/g Tissue	47%	3.2 fold	DA (ng/g Tissue) [11]: 38.37 ± 2.86 ^abc ng/g Tissue; SAP% [12]: 76.5 ± 1.52 ^abc %; IC50 [13]: 65.9 ± 2.27 µM; Selectivity Index BChE/AChE [13]: 6.04; elevation of Wnt3a levels [14]: 6.3 fold; Wnt3a (ng/g Tissue) [14]: 0.76 ± 0.01 ^abc ng/g Tissue; reduction in MDA brain content [15]: 38%; MDA (nmol/g Tissue) [15]: 72.02 ± 0.05 ^abc nmol/g Tissue; rise in the level of NE [16]: 2.2 times; NE (nmol/g Tissue) [16]: 420.5 ± 2.86 ^abc nmol/g Tissue; BAX [17]: 4.85 ± 0.110 ^abc
N#Cc1ccc(N2CC(=O)Oc3sc4c(c3C2=O)CCCCC4)cc1 [Compound 13, 4-(2,5-Dioxo-2,3,7,8,9,10-hexahydro-6H-cyclohepta[4,5]thieno[3,2-f][1,4]oxazepin-4(5H)-yl)benzonitrile]	73.2%	2.86 ± 0.11 ^abc	67.6%	9.04 ± 0.9 ^abc ng/g Tissue	61.3%	45.79 ± 1.34 ^abc pg/g Tissue	58.8%	3.49 ± 0.07 ^abc	4.1 fold	7.39 ± 0.1 ^abc ng/g Tissue	61.7%	11.35 ± 0.31 ^abc ng/mL	4.8 fold	0.78 ± 0.010 ^abc	2.53 ± 0.25 ^abc U/g	59.5%	3.85 ± 0.070 ^abc	24.35 ± 0.8 ^abc ng/g Tissue	63.8%	4.1 fold	DA (ng/g Tissue) [11]: 48.65 ± 2.3 ^abc ng/g Tissue; increase in SAP% [12]: ~35%; SAP% [12]: 82.67 ± 1.28 ^abc %; IC50 [13]: 4.22 ± 0.14 µM; Selectivity Index BChE/AChE [13]: 0.84; elevation of Wnt3a levels [14]: 7 fold; Wnt3a (ng/g Tissue) [14]: 0.84 ± 0.01 ^abc ng/g Tissue; reduction in MDA brain content [15]: 54.7%; MDA (nmol/g Tissue) [15]: 52.58 ± 0.08 ^abc nmol/g Tissue; rise in the level of NE [16]: 2.4 times; NE (nmol/g Tissue) [16]: 449.6 ± 2.3 ^abc nmol/g Tissue; BAX [17]: 5.80 ± 0.120 ^abc
CCOc1ccc(N2CC(=O)Oc3sc4c(c3C2=O)CCCCC4)cc1 [Compound 14, 4-(4-Ethoxyphenyl)-3,4,7,8,9,10-hexahydro-6H-cyclohepta[4,5]thieno[3,2-f][1,4]oxazepine-2,5-dione]	63.2%	3.92 ± 0.04 ^abc	58.4%	11.66 ± 0.17 ^abc ng/g Tissue	49.3%	59.92 ± 0.98 ^abc pg/g Tissue	56%	3.73 ± 0.04 ^abc	4.5 fold	8.22 ± 0.19 ^abc ng/g Tissue	43.8%	16.66 ± 0.38 ^abc ng/mL	3.1 fold	0.50 ± 0.020 ^abc	2.38 ± 0.78 ^abc U/g	46.6%	5.08 ± 0.050 ^abc	19.4 ± 0.39 ^abc ng/g Tissue	71.2%	4.3 fold	DA (ng/g Tissue) [11]: 51.88 ± 2.66 ^abc ng/g Tissue; SAP% [12]: 77.5 ± 2.11 ^abc %; IC50 [13]: 2.93 ± 0.1 µM; Selectivity Index BChE/AChE [13]: 7.50; elevation of Wnt3a levels [14]: 4 fold; Wnt3a (ng/g Tissue) [14]: 0.66 ± 0.02 ^abc ng/g Tissue; reduction in MDA brain content [15]: 59%; MDA (nmol/g Tissue) [15]: 47.6 ± 0.12 ^abc nmol/g Tissue; rise in the level of NE [16]: 2.1 times; NE (nmol/g Tissue) [16]: 386.7 ± 2.66 ^abc nmol/g Tissue; BAX [17]: 5.49 ± 0.100 ^abc
